Measured values: PubChem BioAssay (NCI)
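96-well plates; 48 h exposure; 5 concentrations. Endpoints by linear interpolation between flanking doses. Not reached: highest tested concentration assigned. The concentration for 50% growth inhibition is given as GI50. The concentration for full growth arrest is given as TGI.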

Key:
Experiment in all cases: growth of human tumour cells (NCI), 48 h
MALME-3M melanoma = tested on: MALME-3M melanoma
OVCAR-5 ovarian = tested on: OVCAR-5 ovarian
SK-OV-3 ovarian = tested on: SK-OV-3 ovarian
PC-3 prostate = tested on: PC-3 prostate
CCRF-CEM leukemia = tested on: CCRF-CEM leukemia
K-562 leukemia = tested on: K-562 leukemia
786-0 renal = tested on: 786-0 renal
MCF7 breast = tested on: MCF7 breast
COLO 205 colon = tested on: COLO 205 colon
OVCAR-8 ovarian = tested on: OVCAR-8 ovarian

SMILES	TGI (MALME-3M melanoma) [µM]	TGI (OVCAR-5 ovarian) [µM]	TGI (SK-OV-3 ovarian) [µM]	TGI (PC-3 prostate) [µM]	TGI (CCRF-CEM leukemia) [µM]	TGI (K-562 leukemia) [µM]	TGI (786-0 renal) [µM]	TGI (MCF7 breast) [µM]	TGI (COLO 205 colon) [µM]	TGI (OVCAR-8 ovarian) [µM]	GI50 (MALME-3M melanoma) [µM]	GI50 (OVCAR-5 ovarian) [µM]	GI50 (SK-OV-3 ovarian) [µM]	GI50 (PC-3 prostate) [µM]	GI50 (CCRF-CEM leukemia) [µM]	GI50 (K-562 leukemia) [µM]	GI50 (786-0 renal) [µM]	GI50 (MCF7 breast) [µM]	GI50 (COLO 205 colon) [µM]	GI50 (OVCAR-8 ovarian) [µM]
CC(C)=CCC\C(C)=C/C=C/C(C)=C\C=C\C(C)=C/C=C/C=C(C)\C=C\C=C(C)/C=C/C=C(/C)CCC=C(C)C	> 100	> 100	> 100	> 100	> 100	> 100	> 100	> 100	> 100	> 100										
CC1CCc2nc[nH]c(=O)c21 (centres undefined)	> 100	> 100	> 100	> 100	> 100	> 100	> 100	> 100	> 100	> 100	> 100	> 100	> 100	> 100	> 100	> 100	> 100	> 100	> 100	> 100
Cc1ccnc2c1ccc1c(C)ccnc12	5.27	19	9.61	15.5	3	25.9	10.9	12.4	13	14.1	0.364	0.75	0.526	0.43	0.361	0.395	0.327	0.343	0.568	0.397
OC1CSSC1Cn1cnc2c(Nc3ccc(OCc4cccc(F)c4)c(Cl)c3)ncnc21 (centres undefined)	10.6	10.2	1.75	1.87	13.9	1.5	11.9	1.29	8.69	12	2.52	3.83	0.75	0.749	0.656	0.604	5.67	0.509	2.83	3.71
Cc1nc2sccn2c1-c1csc(Nc2ccccc2Cl)n1	22.1	75.1	75.2	37.5	53.2	17.1	15.7	23	21	45.2	3.55	9.58	8.4	4.09	3.32	0.586	3.47	2.81	5.87	6.05
CN(C)c1ccc(/C=C\C2=[N+](C)c3ccccc3C2(C)C)cc1	16.5	43.8	> 24.4		> 100	> 100	> 41.2	30.7	1.65	> 41.1	0.456	3.18	0.696	0.195	0.453	1.77	2.48	0.455	0.354	0.614
